The subject of the assay is HIV-1. The note with it: for time within which capacity to inactivate HIV-1 reverse transcriptase was lost / permanence of HIV-1 reverse transcriptase inactivation: 10 nM compound, HIV-1 in MT-2 cells.

Read-outs that look alike come from different tables or passages of the source.

Procedure: MT-2 cells were contacted with HIV-1 TCID50, and 0, 2, 10, 20, or 50 nM of either DAPY (TMC120-R147681) or azido-DAPY were placed on 50μ/well plates. The plates were placed on ice for 20 minutes and then irradiated at 7.5 cm from a UV light source (UVP lamp model UVGL-25) that provides UV light at a wavelength of 365 nm and an intensity of 1.14 W/cm^2 for a period of 20 minutes. Studies of HIV-1 infected MT-2 cells contacted with DAPY but not UV irradiated, and HIV-1 infected MT-2 cells that were irradiated but not contacted with DAPY or azido-DAPY were also performed.
The inactivation of HIV was evaluated by a reverse transcriptase activity assay as described by Xu et al. (2009). The measurements are provided in counts per minute (cpm).

As to `Cc1cc(C)c(Nc2ccnc(Nc3ccc(C#N)cc3)n2)c(C)c1` [DAPY, dapivirine], the “time within which capacity to inactivate HIV-1 reverse transcriptase was lost” value is not above 16 days (with UV light treatment) and not above 16 days (without UV light treatment). Also, the “permanence of HIV-1 reverse transcriptase inactivation” value runs as follows: (with UV light) “inability to produce a permanent inactivation”; (without UV light) “inability to produce a permanent inactivation”. In addition, the “inactivation of HIV-1 in time-exposure studies” value (compound + UV light exposure, time-exposure studies) is “not observed”.

For the origin of these results see US8623595B2, “Inactivation of reverse transcriptases by azido-diarylpyrimidines” (Photoimmune Biotechnology Inc., priority 2010, dated 2014).
